Data as given in US8487095B2, “Acid addition salts, hydrates and polymorphs of 5-(2,4-dihydroxy-5-iso-propyl-phenyl)-4-(4-morpholin-4-ylmethyl-phenyl)-isoxazole-3-carboxylic acid ethylamide and formulations comprising these forms” (priority 2007, dated 2013).
Counter-ions that a name gives are not always drawn. Like-named read-outs stand apart in the source and are kept apart here.

How the values were obtained:
[1] = Solubility of the free base and its salts (description); assay type: physicochemical
[2] = clinical, humans; cited from earlier work
[3] = cited from earlier work
[4] = Hygroscopicity by Dynamic Water Sorption (DVS); assay type: physicochemical; details: 25° C.; for found to be hygroscopic: DVS, 'Neither' = not hygroscopic
Protocol: Hygroscopicity is measured using a Dynamic Water Sorption (DVS) apparatus. Measurements are performed at 25° C. using about 8-10 mg of substance. The r.h. is changed in steps of 10% r.h. as follows: 40-0-95-0-40% r.h. The minimum stage time is 60 min, the maximum 180 min, if the change in mass of 10 min is less than 0.002%/min, the r.h. is changed to the next step.

[5] = Equilibration in suspension (polymorphism); assay type: physicochemical; details: over a range of applied conditions
Text: Lack of polymorphism is a beneficial property for a solid form designated to be developed as a medicament.

[6] = Solubility of the mesylate salt in different aqueous media (Example 7); assay type: physicochemical
Protocol: The solubility of the 5-(2,4-dihydroxy-5-isopropyl-phenyl)-4-(4-morpholin-4-ylmethyl-phenyl)-isoxazole-3-carboxylic acid ethylamide (AUY922) mesylate salt in different aqueous media were determined and found to be as follows: […]

[7] = Stress tests in solution or suspensions, 4 weeks at 50° C. (Example 8); assay type: physicochemical
Protocol: The stability of the AUY922 mesylate salt in different aqueous media were determined under stress conditions (4 weeks at 50° C.) and the following appearance/content recovery/sum of by- and degradation products were found: […]

[8] = pH and autoclavation of the 4.8-5.2 mg/ml aqueous mesylate solution; assay type: physicochemical
Protocol: Preferably, the formulation comprises between around 4.8 and 5.2 mg/ml solution, more preferably 5.0 mg/ml solution, of 5-(2,4-dihydroxy-5-isopropyl-phenyl)-4-(4-morpholin-4-ylmethyl-phenyl)-isoxazole-3-carboxylic acid ethylamide mesylate. The pH of such a solution is around 4.2 and therefore at the stability maximum of the mesylate salt. This surprising finding renders the solution particularly suitable for pharmaceutical use. In particular, it allows to use the solution without any other excipients, such as buffers, for stabilizing the drug substance.

[9] = Light sensitivity; assay type: physicochemical; details: as solid as well as in solution
[10] = Stability and crystal formation of aqueous mesylate solutions on storage; assay type: physicochemical
Text: The expression “free of any other salts” as used herein means that neither any salts derived from inorganic or organic acids, such as sodium chloride, as isotonic agent nor any buffer salts are present.
In one embodiment, the formulation consists of the mesylate salt of an isotonic aqueous solution of 5-(2,4-dihydroxy-5-isopropyl-phenyl)-4-(4-morpholin-4-ylmethyl-phenyl)-isoxazole-3-carboxylic acid ethylamide and 5% w/w of glucose or mannitol. […] Furthermore, the pH of such a solution prevents Maillard reactions during autoclavation of the 5% glucose solution which would lead to discoloration at neutral pH.

[11] = buffer pH 6.0 (phosphate buffer)
[12] = buffer pH 6.8 (phosphate buffer)
[13] = water, read-out: solubility in water

With “5-(2,4-dihydroxy-5-isopropyl-phenyl)-4-(4-morpholin-4-ylmethyl-phenyl)-isoxazole-3-carboxylic acid ethylamide hemi fumarate [hemi fumarate salt]” the solubility in water ([1]; water) was 100 to 250 µg/mL.

In the case of `C=CCNC1=C2C[C@@H](C)C[C@H](OC)[C@H](O)[C@@H](C)/C=C(\C)[C@H](OC(N)=O)[C@@H](OC)/C=C\C=C(/C)C(=O)NC(=CC1=O)C2=O` [Example 17-AAG, 17-allylamino-17-demethoxy-geldanamycin], the dose limiting toxicity [2] is given as “hepatic toxicity” and the solubility [3] is given as “poor solubility”.

In the case of `CCNC(=O)c1noc(-c2cc(C(C)C)c(O)cc2O)c1-c1ccc(CN2CCOCC2)cc1` [free base, 5-(2,4-Dihydroxy-5-isopropyl-phenyl)-4-(4-morpholin-4-ylmethyl-phenyl)-isoxazole-3-carboxylic acid ethylamide], the “solubility in 0.1 N HCl” value [1] is reported as 1000 to 2500 µg/mL, the solubility in water ([1]; water) is reported as “less than 0.1 mg/ml” and the “maximum uptake of water” value ([4]; 80% relative humidity) is reported as 1.8%. For the same molecule, the “found to be hygroscopic” value [4] was “slightly hygroscopic”.

In the case of `CCNC(=O)c1noc(-c2cc(C(C)C)c(O)cc2O)c1-c1ccc(CN2CCOCC2)cc1` [hydrochloride salt, 5-(2,4-Dihydroxy-5-isopropyl-phenyl)-4-(4-morpholin-4-ylmethyl-phenyl)-isoxazole-3-carboxylic acid ethylamide hydrochloric acid salt], the “solubility in 0.1 N HCl” value [1] is reported as “less than 1 mg/ml”, the “solubility at pH 5” value ([1]; pH 5) is reported as 1-2.5 mg/ml and the solubility in water ([1]; water) is reported as 2500 to 5000 µg/mL. For the same molecule, the “found to be hygroscopic” value [4] was “Neither” and the “change of crystalline form by equilibration in suspension” value [5] was “did not change”.

With `CCNC(=O)c1noc(-c2cc(C(C)C)c(O)cc2O)c1-c1ccc(CN2CCOCC2)cc1` [mesylate salt, 5-(2,4-Dihydroxy-5-isopropyl-phenyl)-4-(4-morpholin-4-ylmethyl-phenyl)-isoxazole-3-carboxylic acid ethylamide mesylate] the “solubility compared with the free base (and other salts)” value [1] was “superior”, the “solubility in 0.1 N HCl” value ([1]; mesylate) was 10000 to 20000 µg/mL and the solubility ([1]; pH 5, aqueous buffer, pH 5, read-out: solubility at pH 5) was 1000 to 2500 µg/mL. For the same molecule, the solubility ([1]; water, pH 4, water, water at pH 4, read-out: solubility in water at pH 4) was 33500 µg/mL, the “found to be hygroscopic” value ([4]; mesylate) was “Neither” and the solubility ([6]; 0.9% NaCl solution, saline or isotonic, thermodynamic from solid) was 12800 µg/mL. It also gave a solubility ([6]; 5% glucose solution, saline or isotonic, thermodynamic from solid) of 39000 µg/mL, a solubility ([6]; 5% mannitol solution, saline or isotonic, thermodynamic from solid) of 39000 µg/mL and a solubility ([6]; aqueous buffer, thermodynamic from solid, buffer pH 4.0 (acetate buffer)) of 14600 µg/mL. It also gave a solubility ([6]; aqueous buffer, thermodynamic from solid, buffer pH 5.0 (acetate buffer)) of 3200 µg/mL, a solubility ([6]; aqueous buffer, thermodynamic from solid, buffer pH 6.0 (phosphate buffer)) of 600 µg/mL and a solubility ([6]; aqueous buffer, thermodynamic from solid, buffer pH 7.0 (phosphate buffer)) of 700 µg/mL. The solubility ([6]; aqueous buffer, thermodynamic from solid, buffer pH 8.0 (borate buffer)) was 1800 µg/mL, the solubility ([6]; pH 3.6, thermodynamic from solid, Water (pH of the saturated solution=3.6)) was 37500 µg/mL and the solubility ([6]; saline or isotonic, thermodynamic from solid, 5% glucose solution pH 4) was 35600 µg/mL. For the same molecule, the solubility ([6]; saline or isotonic, thermodynamic from solid, 5% glucose solution pH 7) was 37500 µg/mL, the appearance ([7]; 0.9% NaCl) was “colorless solution” and the “sum of by- and degradation products” value ([7]; 0.9% NaCl) was 0.34%. For the same molecule, the appearance ([7]; 5% glucose solution) was “colorless solution”, the “sum of by- and degradation products” value ([7]; 5% glucose solution) was 0.34% and the appearance ([7]; Water) was “colorless solution”. The “sum of by- and degradation products” value ([7]; Water) was 0.32%, the appearance ([7]; buffer pH1.0 (HCl)) was “colorless solution” and the “sum of by- and degradation products” value ([7]; buffer pH1.0 (HCl)) was 2.83%. For the same molecule, the appearance ([7]; buffer pH2.0 (citrate buffer)) was “colorless solution”, the “sum of by- and degradation products” value ([7]; buffer pH2.0 (citrate buffer)) was 0.58% and the appearance ([7]; buffer pH3.0 (citrate buffer)) was “colorless solution”. The “sum of by- and degradation products” value ([7]; buffer pH3.0 (citrate buffer)) was 0.47%, the appearance ([7]; buffer pH 4.0 (acetate buffer)) was “colorless solution” and the “sum of by- and degradation products” value ([7]; buffer pH 4.0 (acetate buffer)) was 0.36%. For the same molecule, the appearance ([7]; buffer pH 5.0 (acetate buffer)) was “colorless solution”, the “sum of by- and degradation products” value ([7]; buffer pH 5.0 (acetate buffer)) was 0.50% and the appearance [7, 11] was “colorless suspension”. For the same molecule, the “sum of by- and degradation products” value [7, 11] was 0.49%, the appearance [7, 12] was “colorless suspension” and the “sum of by- and degradation products” value [7, 12] was 0.79%. For the same molecule, the appearance ([7]; buffer pH8.0 (borate buffer)) was “colorless suspension”, the “sum of by- and degradation products” value ([7]; buffer pH8.0 (borate buffer)) was 0.26% and the “pH of stability maximum” value ([7]; stress conditions) was 4. For the same molecule, the “pH of the solution” value ([8]; aqueous solution, around 4.8 to 5.2 mg/ml mesylate) was “around 4.2”, the stability to autoclavation ([8]; solution of around 4.8 to 5.2 mg/ml, about 120° C., 20 to 40 minutes, around 2 bar) was “without causing any color changes or degradation products” and the light sensitivity [9] was “light sensitive”. The “crystal formation in solution” value ([10]; in the presence of other salts (e.g. sodium chloride, buffer salts)) was “crystals are formed sooner or later”, the “chemical stability in formulation” value ([10]; isotonic aqueous solution with 5% w/w of glucose or mannitol) was “chemically stable” and the “crystal formation on storage” value ([10]; isotonic aqueous solution with 5% w/w of glucose or mannitol, longer storage time, e.g. several months) was “crystal formation can be avoided”.

For `CCNC(=O)c1noc(-c2cc(C(C)C)c(O)cc2O)c1-c1ccc(CN2CCOCC2)cc1.O=P(O)(O)O` [phosphate salt, 5-(2,4-dihydroxy-5-isopropyl-phenyl)-4-(4-morpholin-4-ylmethyl-phenyl)-isoxazole-3-carboxylic acid ethylamide phosphate], the solubility [1, 13] was 500 to 1000 µg/mL.

Work on `CCNC(=O)c1noc(-c2cc(C(C)C)c(O)cc2O)c1-c1ccc(CN2CCOCC2)cc1.O=C(O)C(O)C(O)C(=O)O` [tartrate salt, 5-(2,4-dihydroxy-5-isopropyl-phenyl)-4-(4-morpholin-4-ylmethyl-phenyl)-isoxazole-3-carboxylic acid ethylamide tartrate] yielded a solubility [1, 13] greater than 2000 µg/mL.
